Results: PMC11960843, “Exploration of the tunability of BRD4 degradation by DCAF16 trans-labelling covalent glues” (European journal of medicinal chemistry, 2024)

Legend:
[1] = target: T1, BRD4BD2-DCAF16 ternary complex (Homo sapiens, UniProt O60885+Q9NXF7); assay: DDB1-DCAF16-BRD4BD2 TR-FRET ternary complex formation assay; format: biochemical; conditions: for TR-FRETmax (520 nm/490 nm ratio): 6 h degrader incubation; for incubation time of saturation / maximum TR-FRET signal: measured at 1, 2, 4, 6 and 24 h
T1 construct: E3 ligase to bromodomain 2 (BRD4BD2); His6 (N); StrepII (N); Avi (N); made in house; host or cells: BRD4BD2: E. coli (pET100/D-TOPO)
From the text: To determine the relationship between covalent warheads and DCAF16 recruitment to BRD4BD2, we used a time-resolved fluorescence energy transfer (TR-FRET) assay to measure induced BRD4BD2-DCAF16 ternary complex formation (Fig. 3A).
Furthermore, we wanted to determine the kinetics of the BRD4BD2-DCAF16 interaction given its covalent nature. […] Additionally, to understand the relationship between ternary complex formation kinetics and warhead reactivity we measured the depletion of the covalent analogs in the presence of glutathione using MS (Table S2). […] Titrations of compounds to induce the DCAF16-BRD4BD complex were carried out by mixing 100 nM biotinylated BRD4BD2, 500 nM BODIPY-FL labeled DDB1ΔB-DCAF16 variants, and 2 nM terbium-coupled streptavidin (Invitrogen) in an assay buffer containing 50 mM HEPES pH 8.0, 200 mM NaCl, 0.1% Pluronic F-68 solution (Sigma), 0.5% bovine serum albumin (BSA) (w/v) and 1 mM TCEP. […] The TR-FRET signal of each data point was extracted by calculating the 520/490 nm ratio.

BRD4 [2] = target: T2, BRD4 (Homo sapiens, UniProt O60885); assay: Western blot of BRD4 degradation, DCAF16 KO K562 cells; format: cell-based; design: an 11 amino acid peptide knock-in tag to a protein-of-interest using CRISPR insertion; endogenous in cells; conditions: DCAF16 KO K562, 1 μM, 16 h
Procedure: (§1) Western blotting was used to determine the degradation potencies of the covalent BRD4 degraders.
(§2) Cells were washed with PBS and lysed in RIPA lysis buffer (Thermo Fisher Scientific) with Halt Protease Inhibitor Cocktail (Thermo Fisher Scientific) and Benzonase (Sigma-Aldrich) for 20 min on ice. The insoluble fraction was removed by centrifugation, the protein concentration was quantified using a BCA protein assay kit (Thermo Fisher Scientific), and an equal amount of lysate was run on SDS–PAGE 4–12% Bis–Tris Protein Gels (Thermo Fisher Scientific) and then transferred to nitrocellulose membrane with a XCell II Blot Module Wet Tank Transfer System (Thermo Fisher Scientific). Membranes were blocked in Intercept (PBS) Blocking Buffer (LI-COR Biosciences) and incubated with primary antibodies overnight at 4 °C. The membranes were then washed in Tris-buffered saline with Tween-20 (TBS-T), incubated for 1 h with secondary IRDye-conjugated antibodies (LI-COR Biosciences) and washed three times in TBS-T for 5 min before near-infrared western blot detection on an Odyssey Imaging System (LI-COR Biosciences).

BRD4 [3] = target: T2, BRD4; assay: BRD4-HiBiT assay, DCAF16 KO JURKAT cells; format: cell-based; design: an 11 amino acid peptide knock-in tag to a protein-of-interest using CRISPR insertion; endogenous in cells; host or cells: JURKAT, HiBiT-edited (wild type or DCAF16 knockout); conditions: 6 h
Procedure: (§3) Thereafter, we sought to characterize the BRD4 cellular degradation potencies in a dose-dependent manner at a shorter time point to minimize secondary effects. This was performed using the bioluminescent HiBiT-BRD4 assay, which consists of an 11 amino acid peptide knock-in tag to a protein-of-interest using CRISPR insertion. A complementary polypeptide (LgBiT) detects and interacts with all HiBiT tagged proteins, thereby reconstituting a luminescent NanoBiT enzyme, that can be quantified by its bioluminescence. WT and DCAF16 KO JURKAT cell lines expressing the BRD4-HiBiT system were generated to quantify dose-dependent BRD4 degradation after 6 h incubation (Fig. 4C).
(§4) After 6 h, the plates were subjected to Nano-Glo HiBiT Lytic detection system (Promega, #N3040) as described in manufacturer's manual. The assays were performed in biological triplicate. DC50 values were determined using a non-linear regression curve fit in GraphPad PRISM 9.5.1.

BRD4BD2 [4] = target: T3, BRD4BD2 (Homo sapiens, UniProt O60885); assay: BRD4BD2-eGFP and mCherry flow reporter degradation assay, DCAF16 KO K562 cells
From the text: In order to investigate the degradation of BRD4 by GNE011 and related analogs, we used a fluorescent stability reporter assay reported previously (Fig. 2A) [17]. This assay involves the co-expression of mCherry with BRD4BD1/2 fused to an enhanced green fluorescent protein (eGFP) tag, and the subsequent fluorescence measurement of BRD4BD1/2-eGFP normalized to mCherry as a readout for BRD4BD1/2 degradation. It allows for a quantitative, rapid, and facile screening of several MGDs, in a dose-and time-dependent manner. […] Thus, the BRD4BD2 stability system was used to test all subsequent GNE011 analogs in wild type and DCAF16−/− cells.
Lentivirus containing sgRNA was transduced to 2 × 10^6 of K562-Cas9 cells at 10% volume ratio by spin infection. FACS sorting was performed to enrich BFP+ cells one week after infection. […] Clonal sgDCAF16-expressing K562-Cas9 cells were isolated after one month of expansion, and the genomic sequences were validated via deep sequencing of PCR amplicons targeting sgDCAF16 cutting sites (MGH CCIB DNA Core Service).
(§5) K562 cells stably expressing degradation reporter were dosed with DMSO or degraders at various times and concentrations using D300e Digital Dispenser (HP). The fluorescent signal was quantified by flow cytometry (LSRFortessa flow cytometer, BD Biosciences) and analyzed using FlowJo (flow cytometry analysis software, BD Biosciences). The geometric mean of the eGFP and mCherry fluorescent signal for round and mCherry-positive cells was calculated. GFP expression was normalized to mCherry signal and drug treatments were compared to DMSO controls.

BRD4BD2 [5] = target: T3, BRD4BD2; assay: BRD4 AlphaScreen competition assay (JQ1-biotin displacement), BRD4BD2; format: binding; conditions: read-out: IC50 BRD4BD2
BRD4 [6] = target: T2, BRD4; assay: BRD4-HiBiT assay, WT JURKAT cells; format: cell-based; design: an 11 amino acid peptide knock-in tag to a protein-of-interest using CRISPR insertion; endogenous in cells; host or cells: JURKAT, HiBiT-edited (wild type or DCAF16 knockout); conditions: 6 h; for BRD4 degradation: at <100 nM
Procedure: as §3, §4

glutathione = assay: GSH stability (glutathione reactivity) assay by LC-MS/MS; format: physicochemical; conditions: PBS containing 5 mM reduced glutathione; PBS + 5 mM GSH; extrapolated from 240 min assay
From the text: Furthermore, we wanted to determine the kinetics of the BRD4BD2-DCAF16 interaction given its covalent nature. […] Additionally, to understand the relationship between ternary complex formation kinetics and warhead reactivity we measured the depletion of the covalent analogs in the presence of glutathione using MS (Table S2). […].

BRD4 [7] = target: T2, BRD4; assay: Western blot of BRD4 degradation, wild-type K562 cells; format: cell-based; design: an 11 amino acid peptide knock-in tag to a protein-of-interest using CRISPR insertion; endogenous in cells; conditions: wild-type K562, 1 μM, 16 h
Procedure: as §1, §2

BRD4BD1 = BRD4BD1 (Homo sapiens, UniProt O60885); assay: BRD4 AlphaScreen competition assay (JQ1-biotin displacement), BRD4BD1; format: binding; conditions: read-out: IC50 BRD4BD1
BRD4BD2 [8] = target: T3, BRD4BD2; assay: BRD4BD2-eGFP and mCherry flow reporter degradation assay, wild type K562 cells; conditions: for increase in degradation potency in comparison to GNE011: BRD4BD2 reporter, 16 h; for Dmax: K562, read-out: maximal degradation (Dmax/16h) of BRD4BD2, K562 cells, 16 h incubation; for DC50: read-out: DC50 of BRD4BD2 degradation
From the text: This assay involves the co-expression of mCherry with BRD4BD1/2 fused to an enhanced green fluorescent protein (eGFP) tag, and the subsequent fluorescence measurement of BRD4BD1/2-eGFP normalized to mCherry as a readout for BRD4BD1/2 degradation. It allows for a quantitative, rapid, and facile screening of several MGDs, in a dose-and time-dependent manner. […] Thus, the BRD4BD2 stability system was used to test all subsequent GNE011 analogs in wild type and DCAF16−/− cells.
One day after infection, reporter cells were selected with puromycin at a concentration of 2 μg/mL.
as §5

BRD4 [9] = target: T2, BRD4; assay: Washout experiment, Western blot of BRD4 degradation in K562 cells; format: cell-based; design: an 11 amino acid peptide knock-in tag to a protein-of-interest using CRISPR insertion; endogenous in cells; conditions: K562, 1 μM; for BRD4 degradation after washout compared to no washout (in words): 4 h treatment, 20 h compound-free vs 24 h no washout
Procedure: This experiment involves cell treatment and incubation with a ‘covalent’ compound, followed by a wash-step where the cells are washed and resuspended in compound-free cell media.
Cells were washed with PBS and lysed in RIPA lysis buffer (Thermo Fisher Scientific) with Halt Protease Inhibitor Cocktail (Thermo Fisher Scientific) and Benzonase (Sigma-Aldrich) for 20 min on ice. […] Membranes were blocked in Intercept (PBS) Blocking Buffer (LI-COR Biosciences) and incubated with primary antibodies overnight at 4 °C. The membranes were then washed in Tris-buffered saline with Tween-20 (TBS-T), incubated for 1 h with secondary IRDye-conjugated antibodies (LI-COR Biosciences) and washed three times in TBS-T for 5 min before near-infrared western blot detection on an Odyssey Imaging System (LI-COR Biosciences).

[10] = GSH stability (glutathione reactivity) assay by LC-MS/MS; format: physicochemical; conditions: phosphate buffered saline (PBS) without glutathione, extrapolated from 240 min assay

T1 sequence (Q9NXF7 whole entry, other chains not shown): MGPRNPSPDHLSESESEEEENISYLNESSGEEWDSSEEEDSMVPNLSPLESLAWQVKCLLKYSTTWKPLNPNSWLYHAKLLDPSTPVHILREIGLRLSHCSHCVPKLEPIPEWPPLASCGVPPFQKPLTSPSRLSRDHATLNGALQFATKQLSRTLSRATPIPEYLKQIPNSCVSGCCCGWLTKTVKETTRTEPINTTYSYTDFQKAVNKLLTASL

SMILES	TR-FRETmax (520 nm/490 nm ratio) [1]	incubation time of saturation / maximum TR-FRET signal [1]	BRD4 degradation by Western blot in DCAF16 KO (in words) (BRD4 [2])	BRD4 degradation in DCAF16 KO (in words) (BRD4 [3])	BRD4BD2 degradation activity in DCAF16 knockout cells (in words) (BRD4BD2 [4])	IC50 (BRD4BD2 [5])	BRD4 degradation (in words) (BRD4 [6])	BRD4 degradation (BRD4 [6])	half-life (glutathione)	BRD4 degradation by Western blot (in words) (BRD4 [7])	IC50 (BRD4BD1)	increase in degradation potency in comparison to GNE011 (BRD4BD2 [8]; K562 cells)	Dmax (BRD4BD2 [8])	DC50 (BRD4BD2 [8]; K562 cells, 16 h incubation)	BRD4 degradation after washout compared to no washout (in words) (BRD4 [9])	half-life [10]	BRD4BD2-DCAF16 ternary complex formation / DCAF16 recruitment (in words) ([1]; time-dependent TR-FRET)	DCAF16 dependent BRD4BD2 degradation (in words) (BRD4BD2 [8]; K562 cells, 16 h incubation)	BRD4 degradation without washout (in words) (BRD4 [9]; 24 h no washout)	maximal degradation (Dmax/16h) of BRD4BD2 (BRD4BD2 [8]; K562 cells, 16 h incubation)
C=CC(=O)Nc1ccc(C2=N[C@@H](CC(=O)OC(C)(C)C)c3nnc(C)n3-c3sc(C)c(C)c32)cc1 [MMH1, tert-butyl (S)-2-(4-(4-acrylamidophenyl)-2,3,9-trimethyl-6H-thieno[3,2-f][1,2,4]triazolo[4,3-a][1,4]diazepin-6-yl)acetate]	1.78	24 h	completely rescued by DCAF16 KO	completely rescued by DCAF16 KO	almost entirely ablated	15.5 nM	noticeable BRD4 degradation	> 90%	9.53 h	nearly complete BRD4 degradation	17.7 nM	~ 3333 fold	95%	0.3 nM	no or minimal difference	–	–	–	–	–
Cc1sc2c(c1C)C(c1ccc(/C=C/C(N)=O)cc1)=N[C@@H](CC(=O)OC(C)(C)C)c1nnc(C)n1-2 [MMH271, tert-butyl (S,E)-2-(4-(4-(3-amino-3-oxoprop-1-en-1-yl)phenyl)-2,3,9-trimethyl-6H-thieno[3,2-f][1,2,4]triazolo[4,3-a][1,4]diazepin-6-yl)acetate]	0.14	–	–	–	–	7.58 nM	–	–	> 12.5 h	–	8.08 nM	–	–	–	–	> 12.5 h	no significant DCAF16 recruitment	almost no DCAF16 dependent BRD4BD2 degradation	showed BRD4 degradation in 24 h no washout experiments	–
C=CS(=O)(=O)Nc1ccc(C2=N[C@@H](CC(=O)OC(C)(C)C)c3nnc(C)n3-c3sc(C)c(C)c32)cc1 [MMH2, tert-butyl (S)-2-(2,3,9-trimethyl-4-(4-(vinylsulfonamido)phenyl)-6H-thieno[3,2-f][1,2,4]triazolo[4,3-a][1,4]diazepin-6-yl)acetate]	3.75	1 h	completely rescued by DCAF16 KO	completely rescued by DCAF16 KO	almost entirely ablated	–	noticeable BRD4 degradation	> 90%	> 12.5 h	nearly complete BRD4 degradation	48.6 nM	~1000 fold	95%	1 nM	no or minimal difference	–	–	–	–	–
Cc1sc2c(c1C)C(c1ccc(C#CCN)cc1)=N[C@@H](CC(=O)OC(C)(C)C)c1nnc(C)n1-2 [GNE011, tert-butyl (S)-2-(4-(4-(3-aminoprop-1-yn-1-yl)phenyl)-2,3,9-trimethyl-6H-thieno[3,2-f][1,2,4]triazolo[4,3-a][1,4]diazepin-6-yl)acetate, reference compound]	0.18	–	–	–	–	7.79 nM	–	–	11.3 h	moderate degradation	11.2 nM	–	~50%	–	nearly a complete rescue	> 12.5 h	–	–	–	49%
